Test results as given in patent publication US20100115832A1, “MOISTURIZING AGENT WITH NUTRIENTS” (priority 2006, published 2010).

Details: research at the DRiWATER lab

CC(=O)O [acetic acid]
effect on gel degradation in soil: will slow gel degradation in soil
